This experiment deals with PI3Kδ (PI3Kd) (Homo sapiens (Human), UniProt O00329). Briefly: PI3K HTRF enzymatic inhibition assay (cell-free), delta isoform. The following applies: read-out: IC50 PI3Kd HTRF; recombinant PI3K delta, [ATP] 15 μM, [PIP2] 2 μM, 30 min preincubation.
Chain of PI3Kδ (PI3Kd) (O00329 whole entry, canonical isoform): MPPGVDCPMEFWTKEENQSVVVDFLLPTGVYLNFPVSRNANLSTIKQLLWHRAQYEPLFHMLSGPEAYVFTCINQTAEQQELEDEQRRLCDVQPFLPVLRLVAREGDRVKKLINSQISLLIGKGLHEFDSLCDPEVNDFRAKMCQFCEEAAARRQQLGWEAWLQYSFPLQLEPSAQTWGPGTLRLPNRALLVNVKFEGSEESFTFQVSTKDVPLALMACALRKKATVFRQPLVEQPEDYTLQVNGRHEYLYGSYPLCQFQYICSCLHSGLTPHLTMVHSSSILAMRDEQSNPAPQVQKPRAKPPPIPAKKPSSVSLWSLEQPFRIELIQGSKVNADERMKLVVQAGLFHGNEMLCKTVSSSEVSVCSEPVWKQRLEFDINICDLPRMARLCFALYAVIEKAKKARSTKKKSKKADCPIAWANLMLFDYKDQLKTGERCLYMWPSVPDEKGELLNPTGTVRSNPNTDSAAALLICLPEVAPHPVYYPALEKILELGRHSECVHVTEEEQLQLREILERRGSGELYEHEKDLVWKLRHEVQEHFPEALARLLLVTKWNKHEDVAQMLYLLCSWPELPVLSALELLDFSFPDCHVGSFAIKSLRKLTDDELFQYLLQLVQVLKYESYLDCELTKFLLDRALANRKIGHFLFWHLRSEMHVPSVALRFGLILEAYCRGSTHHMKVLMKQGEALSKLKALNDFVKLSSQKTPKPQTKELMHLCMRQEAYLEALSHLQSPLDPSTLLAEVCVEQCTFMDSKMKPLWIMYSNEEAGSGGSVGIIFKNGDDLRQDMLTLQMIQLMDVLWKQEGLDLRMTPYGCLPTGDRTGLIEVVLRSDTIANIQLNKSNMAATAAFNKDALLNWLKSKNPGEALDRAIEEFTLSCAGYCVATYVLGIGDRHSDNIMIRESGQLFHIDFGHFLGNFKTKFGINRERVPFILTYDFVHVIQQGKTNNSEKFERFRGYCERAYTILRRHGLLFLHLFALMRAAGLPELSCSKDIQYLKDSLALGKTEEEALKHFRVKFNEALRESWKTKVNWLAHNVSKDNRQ
Chain of PI3Kδ (PI3Kd) (P27986 whole entry partner, canonical isoform): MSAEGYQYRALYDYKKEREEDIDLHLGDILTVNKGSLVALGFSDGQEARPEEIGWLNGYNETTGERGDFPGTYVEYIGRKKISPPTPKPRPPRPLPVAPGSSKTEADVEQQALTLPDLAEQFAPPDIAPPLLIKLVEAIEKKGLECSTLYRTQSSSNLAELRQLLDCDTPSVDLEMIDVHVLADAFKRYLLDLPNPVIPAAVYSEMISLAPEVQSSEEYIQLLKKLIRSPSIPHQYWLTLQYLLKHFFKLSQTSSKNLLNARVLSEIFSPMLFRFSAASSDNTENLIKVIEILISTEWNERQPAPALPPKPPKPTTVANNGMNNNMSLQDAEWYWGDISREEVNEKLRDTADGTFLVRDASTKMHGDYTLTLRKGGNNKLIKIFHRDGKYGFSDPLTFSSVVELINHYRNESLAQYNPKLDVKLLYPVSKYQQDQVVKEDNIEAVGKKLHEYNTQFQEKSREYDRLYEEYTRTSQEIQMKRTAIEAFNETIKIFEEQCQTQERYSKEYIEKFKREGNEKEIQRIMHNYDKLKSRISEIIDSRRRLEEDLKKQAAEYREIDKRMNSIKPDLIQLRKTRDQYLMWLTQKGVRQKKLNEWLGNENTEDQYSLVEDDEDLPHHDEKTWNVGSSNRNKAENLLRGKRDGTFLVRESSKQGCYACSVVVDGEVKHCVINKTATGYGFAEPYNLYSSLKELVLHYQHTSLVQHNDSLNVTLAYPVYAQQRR
Description: Compounds were screened for their ability to inhibit PI3Kα (PI3Ka), PI3Kβ (PI3Kb), PI3Kδ (PI3Kd) and PI3Kγ (PI3Kg) using a cell-free based PI3K HTRF™ assay (Millipore, ref. #33-017).
PI-3 Kinase HTRF kit (ref. #33-037) and the different PI3K recombinant isoforms (ref. #14-602, ref. #14-603, ref. #14-604, ref. #15-558 for Alpha, Beta, Delta and Gamma respectively) were purchased at Millipore (expressed in insect cells). ATP was purchased at Sigma Aldrich (ref. #A7699).
The compounds were pre-incubated with the enzyme for 30 min before starting of the catalytic reaction. [PIP2] was used at its Km. […] Time of assay and [Enzyme] were optimized to work in the linear range. Stop and Detection mixtures were used as specified in the Millipore PI-3 Kinase kit.
Reaction time and enzyme concentration in the assay will depend of each batch.
All experiments were analysed using Activity Base software from IDBS and the four-parameter log equation.
As a reminder, the IC50 is the concentration needed to halve the response being measured. `COc1ncc(-c2c[nH]c3ncnc(N[C@@H](C)c4nn5ccc(C)c5c(=O)n4-c4ccccc4)c23)cc1NS(C)(=O)=O` [Example 45, (S)—N-(2-Methoxy-5-(4-((1-(5-methyl-4-oxo-3-phenyl-3,4-dihydropyrrolo[2,1-f][1,2,4]triazin-2-yl)ethyl)amino)-7H-pyrrolo[2,3-d]pyrimidin-5-yl)pyridin-3-yl)methanesulfonamide]: the IC50 came out at 2 nM.
Turning to `N#Cc1c(N)ncnc1N[C@@H](CCOCc1ccccc1)c1nn2ccc(C#N)c2c(=O)n1-c1cc(F)cc(F)c1` [Example 17, (S)-2-(1-((6-Amino-5-cyanopyrimidin-4-yl)amino)-3-(benzyloxy)propyl)-3-(3,5-difluorophenyl)-4-oxo-3,4-dihydropyrrolo[2,1-f][1,2,4]triazine-5-carbonitrile], the IC50 amounted to 6 nM.
As to `Cc1ccn2nc([C@H](C)Nc3ncnc4[nH]cc(C#Cc5ccccc5)c34)n(-c3ccccc3)c(=O)c12` [Example 80, (S)-5-Methyl-3-phenyl-2-(1-((5-(phenylethynyl)-7H-pyrrolo[2,3-d]pyrimidin-4-yl)amino)ethyl)pyrrolo[2,1-f][1,2,4]triazin-4(3H)-one], the IC50 was 0.3 nM.
For the molecule `COc1ncc(-c2c(N)ncnc2N[C@@H](C)c2nn3ccc(C)c3c(=O)n2-c2ccccc2)cc1NS(=O)(=O)c1ccc(O)cc1` [Example 157, (S)—N-(5-(4-Amino-6-((1-(5-methyl-4-oxo-3-phenyl-3,4-dihydropyrrolo[2,1-f][1,2,4]triazin-2-yl)ethyl)amino)pyrimidin-5-yl)-2-methoxypyridin-3-yl)-4-hydroxybenzenesulfonamide], the IC50 turned out to be 0.2 nM.
The value for `Cc1ccn2nc([C@H](C)Nc3ncnc4[nH]cc(-c5cc(O)cc(NC(N)=O)c5)c34)n(-c3ccccc3)c(=O)c12` [Example 175, (S)-1-(3-Hydroxy-5-(4-((1-(5-methyl-4-oxo-3-phenyl-3,4-dihydropyrrolo[2,1-f][1,2,4]triazin-2-yl)ethyl)amino)-7H-pyrrolo[2,3-d]pyrimidin-5-yl)phenyl)urea] was 0.3 nM; that for `Cc1ccn2nc([C@H](C)Nc3ncnc4[nH]cc(-c5cnn(CCCO)c5)c34)n(-c3ccccc3)c(=O)c12` [Example 140, (S)-2-(1-((5-(1-(3-Hydroxypropyl)-1H-pyrazol-4-yl)-7H-pyrrolo[2,3-d]pyrimidin-4-yl)amino)ethyl)-5-methyl-3-phenylpyrrolo[2,1-f][1,2,4]triazin-4(3H)-one] was 0.2 nM.
The result for `N#Cc1ccn2nc([C@H](CCOCc3ccccc3)Nc3ncnc(N)c3-c3cc(O)cc(F)c3)n(-c3cc(F)cc(F)c3)c(=O)c12` [Example 24, (S)-2-(1-((6-Amino-5-(3-fluoro-5-hydroxyphenyl)pyrimidin-4-yl)amino)-3-(benzyloxy)propyl)-3-(3,5-difluorophenyl)-4-oxo-3,4-dihydropyrrolo[2,1-f][1,2,4]triazine-5-carbonitrile] reads 97 nM; that for `Cc1ccn2nc([C@H](C)Nc3ncnc(N)c3-c3ccc(N4CCN(C(=O)OC(C)(C)C)CC4)cc3)n(-c3ccccc3)c(=O)c12` [Example 152, (S)-tert-Butyl 4-(4-(4-amino-6-((1-(5-methyl-4-oxo-3-phenyl-3,4-dihydropyrrolo[2,1-f][1,2,4]triazin-2-yl)ethyl)amino)pyrimidin-5-yl)phenyl)piperazine-1-carboxylate], 100 nM.
The result for `COc1cc(C#N)cc(-c2c[nH]c3ncnc(N[C@@H](C)c4nn5ccc(C)c5c(=O)n4-c4ccccc4)c23)c1` [Example 147, (S)-3-Methoxy-5-(4-((1-(5-methyl-4-oxo-3-phenyl-3,4-dihydropyrrolo[2,1-f][1,2,4]triazin-2-yl)ethyl)amino)-7H-pyrrolo[2,3-d]pyrimidin-5-yl)benzonitrile] reads 0.4 nM; that for `Cc1ccn2nc([C@H](C)Nc3ncnc4[nH]cc(C(=O)OCc5ccccc5)c34)n(-c3ccccc3)c(=O)c12` [Example 37, (S)-Benzyl 4-((1-(5-methyl-4-oxo-3-phenyl-3,4-dihydropyrrolo[2,1-f][1,2,4]triazin-2-yl)ethyl)amino)-7H-pyrrolo[2,3-d]pyrimidine-5-carboxylate], 5 nM.
Regarding `Cc1ccn2nc([C@H](C)Nc3ncnc(N)c3-c3ccc(N4CCNCC4)cc3)n(-c3ccccc3)c(=O)c12` [Example 162, (S)-2-(1-((6-Amino-5-(4-(piperazin-1-yl)phenyl)pyrimidin-4-yl)amino)ethyl)-5-methyl-3-phenylpyrrolo[2,1-f][1,2,4]triazin-4(3H)-one], the IC50 is 132 nM.
The value for `C[C@H](Nc1ncnc2[nH]cc(-c3cc(NS(C)(=O)=O)cc4[nH]ccc34)c12)c1nn2cccc2c(=O)n1-c1ccccc1` [Example 165, (S)—N-(4-(4-((1-(4-Oxo-3-phenyl-3,4-dihydropyrrolo[2,1-f][1,2,4]triazin-2-yl)ethyl)amino)-7H-pyrrolo[2,3-d]pyrimidin-5-yl)-1H-indol-6-yl)methanesulfonamide] was 5 nM.
The result for `Cc1ccn2nc([C@H](C)Nc3ncnc4[nH]cc(-c5cc(NS(C)(=O)=O)cc(C(=O)N(C)C)c5)c34)n(-c3ccccc3)c(=O)c12` [Example 219, (S)—N,N-dimethyl-3-(4-((1-(5-methyl-4-oxo-3-phenyl-3,4-dihydropyrrolo[2,1-f][1,2,4]triazin-2-yl)ethyl)amino)-7H-pyrrolo[2,3-d]pyrimidin-5-yl)-5-(methylsulfonamido)benzamide] reads 0.3 nM; that for `Cc1ccn2nc([C@H](C)Nc3ncnc4[nH]cc(-c5ccn(CCN6CCOCC6)n5)c34)n(-c3ccccc3)c(=O)c12` [Example 144, (S)-5-Methyl-2-(1-((5-(1-(2-morpholinoethyl)-1H-pyrazol-3-yl)-7H-pyrrolo[2,3-d]pyrimidin-4-yl)amino)ethyl)-3-phenylpyrrolo[2,1-f][1,2,4]triazin-4(3H)-one], 2 nM; that for `Cc1ccn2nc([C@H](C)Nc3ncnc(N)c3-c3cnn(CCO)c3)n(-c3ccccc3)c(=O)c12` [Example 116, (S)-2-(1-((6-Amino-5-(1-(2-hydroxyethyl)-1H-pyrazol-4-yl)pyrimidin-4-yl)amino)ethyl)-5-methyl-3-phenylpyrrolo[2,1-f][1,2,4]triazin-4(3H)-one], 1 nM.
The value for `Cc1ccn2nc([C@H](C)Nc3ncnc(N)c3-c3cncc(OC(F)F)c3)n(-c3ccccc3)c(=O)c12` [Example 127, (S)-2-(1-((6-Amino-5-(5-(difluoromethoxy)pyridin-3-yl)pyrimidin-4-yl)amino)ethyl)-5-methyl-3-phenylpyrrolo[2,1-f][1,2,4]triazin-4(3H)-one] was 0.4 nM.
As for “(S)—N-(6-(4-Amino-6-((1-(5-methyl-4-oxo-3-phenyl-3,4-dihydropyrrolo[2,1-f][1,2,4]triazin-2-yl)ethyl)amino)pyrimidin-5-yl)-1H-indol-4-yl)-4-hydroxybenzenesulfonamide [Example 190]”, the IC50 was determined as 0.8 nM.
As for “(S)—N-((1H-Pyrazol-4-yl)ethyl)-4-((1-(5-methyl-4-oxo-3-phenyl-3,4-dihydropyrrolo[2,1-f][1,2,4]triazin-2-yl)ethyl)amino)-7H-pyrrolo[2,3-d]pyrimidine-5-carboxamide [Example 88]”, the IC50 is 41 nM.
The result for `C[C@H](Nc1ncnc(N)c1-c1ccc(N)nc1)c1nn2cccc2c(=O)n1-c1ccccc1` [Example 3, (S)-2-(1-((6-Amino-5-(6-aminopyridin-3-yl)pyrimidin-4-yl)amino)ethyl)-3-phenylpyrrolo[2,1-f][1,2,4]triazin-4(3H)-one] reads 40 nM; that for `CCOc1ncc(-c2c(N)ncnc2N[C@@H](C)c2nn3ccc(C)c3c(=O)n2-c2ccccc2)cc1NS(=O)(=O)c1ccc(O)cc1` [Example 187, (S)—N-(5-(4-Amino-6-((1-(5-methyl-4-oxo-3-phenyl-3,4-dihydropyrrolo[2,1-f][1,2,4]triazin-2-yl)ethyl)amino)pyrimidin-5-yl)-2-ethoxypyridin-3-yl)-4-hydroxybenzenesulfonamide], 0.7 nM; that for `Cc1ccn2nc([C@H](C)Nc3ncnc4[nH]cc(-c5cc(O)cc(F)c5)c34)n(-c3ccccc3)c(=O)c12` [Example 27, (S)-2-(1-((5-(3-Fluoro-5-hydroxyphenyl)-7H-pyrrolo[2,3-d]pyrimidin-4-yl)amino)ethyl)-5-methyl-3-phenylpyrrolo[2,1-f][1,2,4]triazin-4(3H)-one], 1 nM.
As for `Cc1ccn2nc([C@H](C)Nc3ncnc4[nH]cc(Cc5cc(O)cc(F)c5)c34)n(-c3ccccc3)c(=O)c12` [Example 78, (S)-2-(1-((5-(3-Fluoro-5-hydroxybenzyl)-7H-pyrrolo[2,3-d]pyrimidin-4-yl)amino)ethyl)-5-methyl-3-phenylpyrrolo[2,1-f][1,2,4]triazin-4(3H)-one], the IC50 was determined as 0.4 nM.
The value for `Cc1ccn2nc([C@H](C)Nc3ncnc4[nH]cc(-c5ccc(NS(=O)(=O)N(C)C)cc5O)c34)n(-c3ccccc3)c(=O)c12` [Example 239, N′-[3-Hydroxy-4-(4-{[(1S)-1-(5-methyl-4-oxo-3-phenyl-3,4-dihydropyrrolo[2,1-f][1,2,4]triazin-2-yl)ethyl]amino}-7H-pyrrolo[2,3-d]pyrimidin-5-yl)phenyl]-N,N-dimethylsulfamide] was 2 nM; that for `Cc1ccn2nc([C@H](C)Nc3ncnc4[nH]cc(-c5ccn(CC(C)(C)CO)n5)c34)n(-c3ccccc3)c(=O)c12` [Example 155, (S)-2-(1-((5-(1-(3-Hydroxy-2,2-dimethylpropyl)-1H-pyrazol-3-yl)-7H-pyrrolo[2,3-d]pyrimidin-4-yl)amino)ethyl)-5-methyl-3-phenylpyrrolo[2,1-f][1,2,4]triazin-4(3H)-one] was 0.3 nM.
The value for `Cc1ccn2nc([C@H](C)Nc3ncnc(N)c3-c3cc(O)cc(C(=O)N(C)C)c3)n(-c3ccccc3)c(=O)c12` [Example 156, (S)-3-(4-Amino-6-((1-(5-methyl-4-oxo-3-phenyl-3,4-dihydropyrrolo[2,1-f][1,2,4]triazin-2-yl)ethyl)amino)pyrimidin-5-yl)-5-hydroxy-N,N-dimethyl benzamide] was 1 nM.

The values are drawn from US9388189B2, “Pyrrolotriazinone derivatives as PI3K inhibitors” (ALMIRALL, S.A., priority 2012, dated 2016).
